# Counter-ions that a name gives are not always drawn.
# What was measured:
# [1] = Solubilities of active ingredient in various solvents (excess added, shaken 2 hours, centrifuged, HPLC); format: physicochemical
# Experimental: In order to find out the most suitable solvent for the solid dispersion, an excessive amount of HM30181A, as an active ingredient, was added to a solvent, shook for 2 hours, and then the resulting mixture was centrifuged and analyzed by HPLC to measure the solubility. Solvents used for solubility test were MC, methanol, EtOH, hexane, diethyl ether, isopropyl alcohol, acetone and DW.
# [2] = Dissolution characteristics of HM30181A in mixed solvents of MC, EtOH and DW; format: physicochemical
# [3] = Composition 1: HM30181A 15 mg, methylene chloride 450 mg, ethanol 50 mg, distilled water 0 mg
# [4] = Composition 2: HM30181A 15 mg, methylene chloride 350 mg, ethanol 150 mg, distilled water 0 mg
# [5] = Composition 3: HM30181A 15 mg, methylene chloride 250 mg, ethanol 250 mg, distilled water 0 mg
# [6] = Composition 5: HM30181A 15 mg, methylene chloride 350 mg, ethanol 150 mg, distilled water 25 mg
compound,measurement,setting,value
"COc1cc2c(cc1OC)CN(CCc1ccc(-n3nnc(-c4cc(OC)c(OC)cc4NC(=O)c4cc(=O)c5ccccc5o4)n3)cc1)CC2 [HM30181A, chromone-2-carboxylic acid [2-(2-{4-[2-(6,7-dimethoxy-3,4-di-hydro-1H-isoquinolin-2-yl)-ethyl]-phenyl}-2H-tetrazol-5-yl)-4,5-dimethoxyphenyl]amine mesylate]",Solubility,[1]; solvent: acetone,9.23 ppm
same,Solubility,[1]; solvent: diethyl ether,0.00 ppm
same,Solubility,[1]; solvent: distilled water,0.00 ppm
same,Solubility,[1]; solvent: ethanol,382.63 ppm
same,Solubility,[1]; solvent: hexane,0.05 ppm
same,Solubility,[1]; solvent: isopropyl alcohol,31.29 ppm
same,Solubility,[1]; solvent: methanol,10177.50 ppm
same,Solubility,[1]; solvent: methylene chloride,6848.28 ppm
same,Solubility,[2]; [3],"10,260 ppm"
same,Solution appearance,[2]; [3],Clouded
same,Solubility,[2]; [4],"20,370 ppm"
same,Solution appearance,[2]; [4],Clouded
same,Solubility,[2]; [5],"4,710 ppm"
same,Solution appearance,[2]; [5],Clouded
same,Solubility,[2]; [6],"27,850 ppm"
same,Solution appearance,[2]; [6],Clear

# Source: patent US9283218B2, “Solid dispersion with improved solubility comprising tetrazole derivative as an active ingredient” (HANMI PHARM. CO., LTD., priority 2012, dated 2016)
